Marks after values point to notes of the source that are not given here.
Assays:
[1] = target: T1, p53 Y220C (Homo sapiens, UniProt P04637, Y220C); test: DNA binding test (HTRF): binding of P53Y220C protein to DNA; format: biochemical; conditions: multiple ratio of EC50 of the compound to the reference compound, DNA binding test
T1 construct: a truncated mutant containing only amino acids 94-312 of p53; made in house; host or cells: E. coli

[2] = Caco-2 cell permeability test; format: in vitro ADME; conditions: human, pH 7.4, Caco-2, 10 μM; for Papp A→B at 120 min, 10 μM: A to B; for Papp B→A at 120 min, 10 μM: B to A
Experimental: Caco-2 cells (ATCC, Cat. No. HTB-37) were inoculated to a 96-well plate (Corning HTS Transwell, Cat. No. 3391) at 1.25×10^5/cm2, and the culture medium (DMEM+10% FBS+1% Penicillin-Streptomycin Liquid (100×)+1% NEAA) was replaced every 3 to 4 days. The plate was placed in an incubator at 37° C. with 5% CO2 until a confluent cell monolayer was formed after 21 to 28 days. Before the transport experiment, the culture medium was removed from the cell culture plate, and the plate was washed twice with pre-warmed HBSS buffer (10 mM HEPES, pH 7.4), and 100 μL of HBSS buffer was added to each well. After incubation at 37° C. for 30 minutes, the TEER value was measured using a cell resistance meter (Millicell-ERS2) to confirm the integrity and density of the monolayer cells. The HBSS buffer was discarded, the upper plate containing the cell monolayer membrane was transferred to the corresponding receiving plate, 10 mM test compound stock solution was diluted to a concentration of 10 μM with HBSS transport buffer containing 0.5% BSA, and it was added to the apical side (A side) and basolateral side (B side), respectively. Incubation was carried out for 120 min at 37° C., 5% CO2, and 95% relative humidity, and the permeation of the test compound from A side to B side or from B side to A side and the efflux rate of the compound were determined. The test compound and the reference compound were quantified by LC-MS/MS analysis based on the peak area ratio of analyte/internal standard. The apparent permeability coefficient Papp (cm/s) was calculated using the following formula:
[formula] • wherein, dCr/dt represented the functional relation between cumulative concentration of compound in receptor compartment and time; V represented the volume of solution in receptor compartment (0.1 mL at apical side, and 0.25 mL at basolateral side); A represented the transport surface area, i.e., the monolayer cell area was 0.0804 cm^2; CO represented the initial concentration of compound in donor compartment.
The efflux ratio was calculated using the following formula: […]
The percent recovery was calculated using the following formula:
[formula] [formula] • wherein, Vd represented the volume of donor compartment (0.1 mL on the apical side and 0.25 mL on the basolateral side); C and Cr represented the final concentrations of the transported compound in the donor and receptor compartment, respectively; Cc represented the compound concentration in cell lysate; Vc represented the volume of insert well (which was 0.1 mL in this experiment).

[3] = test system: NUGC-3 cells; test: NUGC-3 cell proliferation assay (CTG); format: cell-based, human; conditions: for Compound GI50 (nM)/Reference compound GI50 (nM): multiple ratio of GI50 of the compound to the reference compound; for GI50: Homo sapiens, NUGC-3, 144 h, 6 days, CTG
Procedure, shortened: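 GI50 derived by variable-slope regression of percent inhibition (normalized to blank and 0.1% DMSO controls) from CTG luminescence. Compound was given as 10 threefold dilutions, highest final 10 μM, to overnight-seeded NUGC-3 cells (250/well) for 6 days, 37° C, 5% CO2.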

[4] = target: T2, p53 Y220C (Homo sapiens, UniProt P04637, P309S/R273H/Y220C); test: DNA binding test (HTRF): binding of P53Y220C protein to DNA; format: biochemical; conditions: HTRF, activation of p53 Y220C (aa 94-312) binding to biotin DNA
T2 construct: a truncated mutant containing only amino acids 94-312 of p53; made in house; host or cells: E. coli

[5] = test system: BxPC-3 cells; test: BxPC-3 cell proliferation test (CTG); format: cell-based; conditions: Homo sapiens, 144 h, 6 days
Experimental: To detect the inhibitory effects of the aforementioned compounds on the proliferation ability of BxPC-3 cells, 125 BxPC-3 cells (ATCC®CRL-1687) were seeded into a 384-well plate (Corning 3765), 35 μL per well, and placed in a constant temperature incubator at 37° C. and 5% CO2 overnight. Then, 40 nL of the compound was added to the 384-well plate using an Echo 655 Liquid Handler, with a maximum final concentration of 10 μM, 1:3 serial dilution, and in a total of 10 doses. Incubation was performed at 37° C., 5% CO2 for 6 days. The plate was taken out from the incubator and equilibrated at room temperature for 10 minutes. 20 μL of CTG (Promage G7572) was added to each well of the plate according to the platemap. The plate was centrifuged at 1000 rpm for 1 minute. The lysis of cells was induced by mixing on a shaker for 2 minutes. The plate was centrifuged at 1000 rpm for 1 minute. Incubation was performed at room temperature for 10 minutes to stabilize luminescence signals. Luminescence values were recorded by Envision (PerkinElmer 2105-0020). GraphPad 9.0 was used to fit the inhibition rate and compound concentration into a nonlinear regression curve (dose response-variable slope) to calculate GI50, inhibition rate={1−(A−B)/(C−B)}*100%, A=signal value of compound; B=average signal of blank control; C=average signal of negative control (wherein the negative control was 0.1% DMSO).

COc1cc(C(=O)N(C)C)ccc1NCC#Cc1nc2c(NC3CC[C@@H](N4CC5(COC5)C4)C[C@@H]3F)cccn2c1CC(F)(F)F (some centres unmarked) [Compound 47]
Compound EC50 (nM)/Reference compound EC50 (nM) [1]: B (B: EC50 of the reference compound<EC50 of the compound≤3.0*EC50 of the reference compound) | efflux ratio at 120 min, 10 μM [2]: 1.52 | Papp A→B at 120 min, 10 μM [2]: 3.97 ×10⁻⁶ cm/s | Papp B→A at 120 min, 10 μM [2]: 6.04 ×10⁻⁶ cm/s | Compound GI50 (nM)/Reference compound GI50 (nM) [3]: C (C: GI50 of the compound ≥ 3 * GI50 of the reference compound)

CNC(=O)c1ccc(NCC#Cc2nc3c(N[C@H]4CC[C@H](N5CC6(COC6)C5)CC4)cccn3c2CC(F)(F)F)c(OC)c1 [Compound 9]
Compound EC50 (nM)/Reference compound EC50 (nM) [1]: B (B: EC50 of the reference compound<EC50 of the compound≤3.0*EC50 of the reference compound) | EC50 [4]: 0.1 to 0.5 µM | GI50 [3]: < 1 µM | Compound GI50 (nM)/Reference compound GI50 (nM) [3]: B (B: GI50 of the reference compound < GI50 of the compound ≤ 3.0 * GI50 of the reference compound) | GI50 [5]: < 1 µM

CNC(=O)c1ccc(NCC#Cc2nc3c(NC4CCS(=O)(=O)CC4)cccn3c2CC(F)(F)F)c(OC)c1 [Compound 10]
Compound EC50 (nM)/Reference compound EC50 (nM) [1]: C (C: EC50 of the compound≥3*EC50 of the reference compound) | EC50 [4]: 0.1 to 0.5 µM | GI50 [3]: 1 to 5 µM | Compound GI50 (nM)/Reference compound GI50 (nM) [3]: C (C: GI50 of the compound ≥ 3 * GI50 of the reference compound) | GI50 [5]: 1 to 5 µM

CNC(=O)c1ccc(NCC#Cc2nc3c(NC4CCN(C)CC4)nccn3c2CC(F)(F)F)c(OC)c1 [Compound 1]
Compound EC50 (nM)/Reference compound EC50 (nM) [1]: C (C: EC50 of the compound≥3*EC50 of the reference compound) | EC50 [4]: 0.5 to 1 µM | GI50 [3]: 1 to 5 µM | Compound GI50 (nM)/Reference compound GI50 (nM) [3]: C (C: GI50 of the compound ≥ 3 * GI50 of the reference compound) | GI50 [5]: 1 to 5 µM

CNC(=O)c1ccc(NCC#Cc2nc3c(NC4CC[C@@H](N5CC6(COC6)C5)C[C@@H]4F)cccn3c2CC(F)(F)F)c(OC2CC2)c1 (some centres unmarked) [Compound 57]
Compound EC50 (nM)/Reference compound EC50 (nM) [1]: B (B: EC50 of the reference compound<EC50 of the compound≤3.0*EC50 of the reference compound) | efflux ratio at 120 min, 10 μM [2]: 1.84 | Papp A→B at 120 min, 10 μM [2]: 3.7 ×10⁻⁶ cm/s | Papp B→A at 120 min, 10 μM [2]: 6.82 ×10⁻⁶ cm/s | Compound GI50 (nM)/Reference compound GI50 (nM) [3]: B (B: GI50 of the reference compound < GI50 of the compound ≤ 3.0 * GI50 of the reference compound) | GI50 [5]: < 1 µM

CNC(=O)c1ccc(NCC#Cc2nc3c(NC4CCOCC4)cccn3c2CC(F)(F)F)c(OC)c1 [Compound 8]
Compound EC50 (nM)/Reference compound EC50 (nM) [1]: C (C: EC50 of the compound≥3*EC50 of the reference compound) | EC50 [4]: 0.5 to 1 µM | GI50 [3]: 1 to 5 µM | Compound GI50 (nM)/Reference compound GI50 (nM) [3]: C (C: GI50 of the compound ≥ 3 * GI50 of the reference compound) | GI50 [5]: 1 to 5 µM

CNC(=O)c1ccc(NCC#Cc2nc3c(NC4CCC(N5CCOCC5)C[C@@H]4F)cccn3c2CC(F)(F)F)c(OC)c1 (some centres unmarked) [Compound 44]
Compound EC50 (nM)/Reference compound EC50 (nM) [1]: B (B: EC50 of the reference compound<EC50 of the compound≤3.0*EC50 of the reference compound) | EC50 [4]: < 0.1 µM | efflux ratio at 120 min, 10 μM [2]: 1.79 | Papp A→B at 120 min, 10 μM [2]: 3.54 ×10⁻⁶ cm/s | Papp B→A at 120 min, 10 μM [2]: 6.34 ×10⁻⁶ cm/s | Compound GI50 (nM)/Reference compound GI50 (nM) [3]: C (C: GI50 of the compound ≥ 3 * GI50 of the reference compound)

CNC(=O)c1ccc(NCC#Cc2nc3c(NC4CC[C@@H](N5CC6(CCC6)C5)C[C@@H]4F)cccn3c2CC(F)(F)F)c(OC)c1 (some centres unmarked) [Compound 42]
Compound EC50 (nM)/Reference compound EC50 (nM) [1]: B (B: EC50 of the reference compound<EC50 of the compound≤3.0*EC50 of the reference compound) | efflux ratio at 120 min, 10 μM [2]: 1.72 | Papp A→B at 120 min, 10 μM [2]: 2.16 ×10⁻⁶ cm/s | Papp B→A at 120 min, 10 μM [2]: 3.72 ×10⁻⁶ cm/s | GI50 [3]: < 1 µM | Compound GI50 (nM)/Reference compound GI50 (nM) [3]: B (B: GI50 of the reference compound < GI50 of the compound ≤ 3.0 * GI50 of the reference compound)

COc1cc(S(C)(=O)=O)ccc1NCC#Cc1nc2c(N[C@@H]3CCN(C)C[C@@H]3F)cccn2c1CC(F)(F)F [Compound 3]
Compound EC50 (nM)/Reference compound EC50 (nM) [1]: A (A: EC50 of the compound≤EC50 of the reference compound) | EC50 [4]: 0.1 to 0.5 µM | GI50 [3]: < 1 µM | Compound GI50 (nM)/Reference compound GI50 (nM) [3]: B (B: GI50 of the reference compound < GI50 of the compound ≤ 3.0 * GI50 of the reference compound) | GI50 [5]: < 1 µM

COc1cc(S(C)(=O)=O)ccc1NCC#Cc1nc2c(NC3CCN(C)CC3)cccn2c1CC(F)(F)F [Compound 4]
Compound EC50 (nM)/Reference compound EC50 (nM) [1]: A (A: EC50 of the compound≤EC50 of the reference compound) | EC50 [4]: 0.1 to 0.5 µM | GI50 [3]: 1 to 5 µM | Compound GI50 (nM)/Reference compound GI50 (nM) [3]: B (B: GI50 of the reference compound < GI50 of the compound ≤ 3.0 * GI50 of the reference compound) | GI50 [5]: < 1 µM

Source: US20260132128A1, “COMPOUND FOR RECOVERING P53 MUTATION FUNCTION AND USE THEREOF” (SHENZHEN ZHONGGE BIOLOGICAL TECHNOLOGY CO., LTD., priority 2022, published 2026)
